Measured values reported in patent US10981894B2, “Melanocortin subtype-2 receptor (MC2R) antagonists and uses thereof” (Crinetics Pharmaceuticals, Inc., priority 2018, dated 2021).

Target: hMC2 receptor (Homo sapiens, UniProt Q01718)
Assay: hMC2 membrane binding assay ([125I]ACTH (1-39) Tyr23, SPA)
Design: scale not given here
Details: crude hMC2R membranes from CRE-bla-CHO-K1 cells expressing hMC2 receptor and hMRAP; [125I]ACTH (1-39) Tyr23 0.2 nM; 1.5 hours at room temperature; read-out: MC2R binding potency
Procedure, shortened: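 CRE-bla-CHO-K1 membranes co-expressing hMC2 receptor and hMRAP, preincubated with WGA PVT SPA beads in pH 7.4 HEPES/MgCl2/CaCl2/0.2% BSA buffer. Compounds (typically 0–10,000 nM final) compete with 0.2 nM [125I]ACTH(1-39) Tyr23 for 1.5 h at room temperature. SPA counts give Ki by non-linear regression.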

Chain of hMC2 receptor (Q01718 whole entry): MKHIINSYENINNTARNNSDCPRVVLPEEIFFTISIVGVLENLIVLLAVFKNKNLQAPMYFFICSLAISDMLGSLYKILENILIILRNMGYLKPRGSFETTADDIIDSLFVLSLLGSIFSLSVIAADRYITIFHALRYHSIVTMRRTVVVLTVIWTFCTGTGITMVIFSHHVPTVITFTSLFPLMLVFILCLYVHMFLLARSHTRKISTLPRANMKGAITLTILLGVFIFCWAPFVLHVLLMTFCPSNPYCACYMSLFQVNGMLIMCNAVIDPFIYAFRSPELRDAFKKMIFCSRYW
Chain of hMC2 receptor (Q8TCY5 whole entry partner): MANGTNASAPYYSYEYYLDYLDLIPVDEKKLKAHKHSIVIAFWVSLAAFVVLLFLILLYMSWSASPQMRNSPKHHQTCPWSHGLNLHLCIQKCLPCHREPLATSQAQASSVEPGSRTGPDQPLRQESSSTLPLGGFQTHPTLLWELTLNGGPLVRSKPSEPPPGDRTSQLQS

SMILES | Ki
CCOc1ncccc1-c1ccc(N2CCN(C(=O)C3(C(F)(F)F)CCC3)C[C@H]2CC)c(C(=O)N[C@@H]2CN3CCC2CC3)n1 [Compound 1-411, N-[(3S)-1-azabicyclo[2.2.2]octan-3-yl]-2′-ethoxy-5-[(2R)-2-ethyl-4-[1-(trifluoromethyl)cyclobutanecarbonyl]piperazin-1-yl]-[2,3′-bipyridine]-6-carboxamide] | < 0.01 µM
CCOc1ccccc1-c1ccc(N2CCN(C(=O)N3CCC[C@H]3C(C)(C)F)C[C@H]2CC)c(C(=O)N[C@@H]2CCN(C)C2)n1 [Compound 1-412, 6-(2-ethoxyphenyl)-3-[(2R)-2-ethyl-4-[(2S)-2-(2-fluoropropan-2-yl)pyrrolidine-1-carbonyl]piperazin-1-yl]-N-[(3R)-1-methylpyrrolidin-3-yl]pyridine-2-carboxamide] | < 0.01 µM
CCOc1ncccc1-c1ccc(N2CCN(C(=O)N3CCC[C@H]3C(C)(C)F)C[C@H]2CC)c(C(=O)N[C@@H]2CCN(C)C2)n1 [Compound 1-413, 2′-ethoxy-5-[(2R)-2-ethyl-4-[(2S)-2-(2-fluoropropan-2-yl)pyrrolidine-1-carbonyl]piperazin-1-yl]-N-[(3R)-1-methylpyrrolidin-3-yl]-[2,3′-bipyridine]-6-carboxamide] | < 0.01 µM
CCOc1ncccc1-c1ccc(N2CCN(C(=O)C3(C(F)(F)F)CCCC3)C[C@H]2CC)c(C(=O)NCC2=NCCN2C)n1 [Compound 1-415, 2′-ethoxy-5-[(2R)-2-ethyl-4-[1-(trifluoromethyl)cyclopentanecarbonyl]piperazin-1-yl]-N-[(1-methyl-4,5-dihydro-1H-imidazol-2-yl)methyl]-[2,3′-bipyridine]-6-carboxamide] | < 0.01 µM
CCOc1ncccc1-c1ccc(N2CCN(C(=O)C3(C(F)F)CCCC3)C[C@H]2CC)c(C(=O)N[C@@H]2CCN(C)C2)n1 [Compound 1-416, 5-[(2R)-4-[1-(difluoromethyl)cyclopentanecarbonyl]-2-ethylpiperazin-1-yl]-2′-ethoxy-N-[(3R)-1-methylpyrrolidin-3-yl]-[2,3′-bipyridine]-6-carboxamide] | < 0.01 µM
CCOc1ccccc1-c1ccc(N2CCN(C(=O)C3(C(F)F)CCCC3)C[C@H]2CC)c(C(=O)N[C@@H]2CCN(C)C2)n1 [Compound 1-417, 3-[(2R)-4-[1-(difluoromethyl)cyclopentanecarbonyl]-2-ethylpiperazin-1-yl]-6-(2-ethoxyphenyl)-N-[(3R)-1-methylpyrrolidin-3-yl]pyridine-2-carboxamide] | < 0.01 µM
CCOc1ncccc1-c1ccc(N2CCN(C(=O)N3CCCC[C@H]3C(F)(F)F)C[C@H]2CC)c(C(=O)N[C@@H]2CCN(C)C2)n1 [Compound 1-427, 2′-ethoxy-5-[(2R)-2-ethyl-4-[(2S)-2-(trifluoromethyl)piperidine-1-carbonyl]piperazin-1-yl]-N-[(3R)-1-methylpyrrolidin-3-yl]-[2,3′-bipyridine]-6-carboxamide] | < 0.01 µM
CCOc1ccccc1-c1ccc(N2CCN(C(=O)n3ccc4cc(F)cc(Cl)c43)C[C@H]2CC)c(C(=O)N[C@@H]2CCN(C)C2)n1 [Compound 1-430, 3-[(2R)-4-(7-chloro-5-fluoro-1H-indole-1-carbonyl)-2-ethylpiperazin-1-yl]-6-(2-ethoxyphenyl)-N-[(3R)-1-methylpyrrolidin-3-yl]pyridine-2-carboxamide] | < 0.01 µM
CCOc1ccccc1-c1ccc(N2CCN(C(=O)n3ccc4cccc(Cl)c43)C[C@H]2CC)c(C(=O)N[C@@H]2CCN(C)C2)n1 [Compound 1-431, 3-[(2R)-4-(7-chloro-1H-indole-1-carbonyl)-2-ethylpiperazin-1-yl]-6-(2-ethoxyphenyl)-N-[(3R)-1-methylpyrrolidin-3-yl]pyridine-2-carboxamide] | < 0.01 µM
CCOc1ccccc1-c1ccc(N2CCN(C(=O)n3ccc4cccc(C#N)c43)C[C@H]2CC)c(C(=O)N[C@@H]2CCN(C)C2)n1 [Compound 1-432, 3-[(2R)-4-(7-cyano-1H-indole-1-carbonyl)-2-ethylpiperazin-1-yl]-6-(2-ethoxyphenyl)-N-[(3R)-1-methylpyrrolidin-3-yl]pyridine-2-carboxamide] | < 0.01 µM
CCOc1ccccc1-c1ccc(N2CCN(C(=O)N3CCCC[C@H]3C(F)(F)F)C[C@H]2CC)c(C(=O)N[C@@H]2CCN(C)C2)n1 [Compound 1-433, 6-(2-ethoxyphenyl)-3-[(2R)-2-ethyl-4-[(2S)-2-(trifluoromethyl)piperidine-1-carbonyl]piperazin-1-yl]-N-[(3R)-1-methylpyrrolidin-3-yl]pyridine-2-carboxamide] | < 0.01 µM
CCOc1ncccc1-c1ccc(N2CCN(C(=O)N3CCCC[C@H]3C(F)(F)F)C[C@H]2CC)c(C(=O)N[C@H]2CCN(C)C2)n1 [Compound 1-434, 2′-ethoxy-5-[(2R)-2-ethyl-4-[(2S)-2-(trifluoromethyl)piperidine-1-carbonyl]piperazin-1-yl]-N-[(3S)-1-methylpyrrolidin-3-yl]-[2,3′-bipyridine]-6-carboxamide] | < 0.01 µM

Now from value to compound:

Ki | SMILES
< 0.01 µM | CCOc1ccccc1-c1ccc(N2CCN(C(=O)N3CCc4cccc(C#N)c43)C[C@H]2CC)c(C(=O)NC2CN(C)C2)n1 [Compound 1-414, 3-[(2R)-4-(7-cyano-2,3-dihydro-1H-indole-1-carbonyl)-2-ethylpiperazin-1-yl]-6-(2-ethoxyphenyl)-N-(1-methylazetidin-3-yl)pyridine-2-carboxamide]
< 0.01 µM | CCOc1ncccc1-c1ccc(N2CCN(C(=O)N3CCc4cccc(C(F)(F)F)c43)C[C@H]2CC)c(C(=O)NC2CN(C)C2)n1 [Compound 1-418, 2′-ethoxy-5-[(2R)-2-ethyl-4-[7-(trifluoromethyl)-2,3-dihydro-1H-indole-1-carbonyl]piperazin-1-yl]-N-(1-methylazetidin-3-yl)-[2,3′-bipyridine]-6-carboxamide]
< 0.01 µM | CCOc1ncccc1-c1ccc(N2CCN(C(=O)N3CCc4cc(F)cc(Cl)c43)C[C@H]2CC)c(C(=O)N[C@H]2CCN(C)C2)n1 [Compound 1-419, 5-[(2R)-4-(7-chloro-5-fluoro-2,3-dihydro-1H-indole-1-carbonyl)-2-ethylpiperazin-1-yl]-2′-ethoxy-N-[(3S)-1-methylpyrrolidin-3-yl]-[2,3′-bipyridine]-6-carboxamide]
< 0.01 µM | CCOc1ncccc1-c1ccc(N2CCN(C(=O)N3CCc4cc(F)cc(Cl)c43)C[C@H]2CC)c(C(=O)NC2CN(C)C2)n1 [Compound 1-420, 5-[(2R)-4-(7-chloro-5-fluoro-2,3-dihydro-1H-indole-1-carbonyl)-2-ethylpiperazin-1-yl]-2′-ethoxy-N-(1-methylazetidin-3-yl)-[2,3′-bipyridine]-6-carboxamide]
< 0.01 µM | CCOc1ccccc1-c1ccc(N2CCN(C(=O)N3CCc4cc(F)cc(Cl)c43)C[C@H]2CC)c(C(=O)N[C@H]2CCN(C)C2)n1 [Compound 1-421, 3-[(2R)-4-(7-chloro-5-fluoro-2,3-dihydro-1H-indole-1-carbonyl)-2-ethylpiperazin-1-yl]-6-(2-ethoxyphenyl)-N-[(3S)-1-methylpyrrolidin-3-yl]pyridine-2-carboxamide]
< 0.01 µM | CCOc1ncccc1-c1ccc(N2CCN(C(=O)N3CCc4cc(F)cc(C#N)c43)C[C@H]2CC)c(C(=O)NC2CN(C)C2)n1 [Compound 1-422, 5-[(2R)-4-(7-cyano-5-fluoro-2,3-dihydro-1H-indole-1-carbonyl)-2-ethylpiperazin-1-yl]-2′-ethoxy-N-(1-methylazetidin-3-yl)-[2,3′-bipyridine]-6-carboxamide]
< 0.01 µM | CCOc1ncccc1-c1ccc(N2CCN(C(=O)N3CCc4cc(F)cc(C#N)c43)C[C@H]2CC)c(C(=O)N[C@H]2CCN(C)C2)n1 [Compound 1-423, 5-[(2R)-4-(7-cyano-5-fluoro-2,3-dihydro-1H-indole-1-carbonyl)-2-ethylpiperazin-1-yl]-2′-ethoxy-N-[(3S)-1-methylpyrrolidin-3-yl]-[2,3′-bipyridine]-6-carboxamide]
< 0.01 µM | CCOc1ccccc1-c1ccc(N2CCN(C(=O)N3CCc4cc(F)cc(C#N)c43)C[C@H]2CC)c(C(=O)NC2CN(C)C2)n1 [Compound 1-424, 3-[(2R)-4-(7-cyano-5-fluoro-2,3-dihydro-1H-indole-1-carbonyl)-2-ethylpiperazin-1-yl]-6-(2-ethoxyphenyl)-N-(1-methylazetidin-3-yl)pyridine-2-carboxamide]
< 0.01 µM | CCOc1ncccc1-c1ccc(N2CCN(C(=O)n3ccc4cc(F)cc(Cl)c43)C[C@H]2CC)c(C(=O)N[C@@H]2CCN(C)C2)n1 [Compound 1-425, 5-[(2R)-4-(7-chloro-5-fluoro-1H-indole-1-carbonyl)-2-ethylpiperazin-1-yl]-2′-ethoxy-N-[(3R)-1-methylpyrrolidin-3-yl]-[2,3′-bipyridine]-6-carboxamide]
< 0.01 µM | CCOc1ccccc1-c1ccc(N2CCN(C(=O)N3CCc4cc(F)cc(C#N)c43)C[C@H]2CC)c(C(=O)N[C@H]2CCN(C)C2)n1 [Compound 1-426, 3-[(2R)-4-(7-cyano-5-fluoro-2,3-dihydro-1H-indole-1-carbonyl)-2-ethylpiperazin-1-yl]-6-(2-ethoxyphenyl)-N-[(3S)-1-methylpyrrolidin-3-yl]pyridine-2-carboxamide]
< 0.01 µM | CCOc1ncccc1-c1ccc(N2CCN(C(=O)n3ccc4cccc(Cl)c43)C[C@H]2CC)c(C(=O)N[C@@H]2CCN(C)C2)n1 [Compound 1-428, 5-[(2R)-4-(7-chloro-1H-indole-1-carbonyl)-2-ethylpiperazin-1-yl]-2′-ethoxy-N-[(3R)-1-methylpyrrolidin-3-yl]-[2,3′-bipyridine]-6-carboxamide]
< 0.01 µM | CCOc1ncccc1-c1ccc(N2CCN(C(=O)n3ccc4cccc(C#N)c43)C[C@H]2CC)c(C(=O)N[C@@H]2CCN(C)C2)n1 [Compound 1-429, 5-[(2R)-4-(7-cyano-1H-indole-1-carbonyl)-2-ethylpiperazin-1-yl]-2′-ethoxy-N-[(3R)-1-methylpyrrolidin-3-yl]-[2,3′-bipyridine]-6-carboxamide]
